Measurements published in US12538922B2, “Composition and methods for parasite control” (priority 2019, dated 2026).
Several values for one entry are separate records, joined by “and”; a condition that tells them apart may be missing. Identical values can stand only once. Counter-ions that a name gives are not always drawn. Like-named read-outs stand apart in the source and are kept apart here.

Key:
[1] = system: adult Aedes aegypti mosquitoes; assay: Mosquito repellency assay (landings and time on warm treated surface); assay type: in vivo; details: for Mean probing time [%, compared to control]: 100% = same time as on vehicle-treated surface; for Repellency, % reduction in landings vs vehicle control: repellency as percentage reduction of control, 100% = no landings
Experimental: The compound of the invention is mixed with ethanol to make a composition that can be applied to a surface and allowed to dry. After the surface is treated with the compounds of the invention and dried, it is heated to human body temperature, and the number of landings and the total time spent by the mosquitoes on the warm surface by adult Aedes aegypti mosquitoes is recorded automatically by machine vision to measure repellency of each compound.
Repellency (based on the number of individual landings on the warm surface) is expressed as a percentage reduction of the control, where the average number of mosquitoes landing on a warm surface treated only with the vehicle solvent is counted. 100% means no mosquitoes landed on the warm surface.
For mosquitoes that still landed on the warm surface, the time spent on the warm surface is also recorded and expressed as a percentage of the control, corresponding to the average time that mosquitoes spent on the same warm surface when treated only with the vehicle solvent. 100% mean that the mosquitoes spent the same time on the treated warm surface as on a warm surface treated only with the vehicle solvent.
Each compound/dose is tested in triplicate using a surface of 18.9 cm2 and 100 microliters of solution without the compound (the placebo) or with the compound dilution spread on the surface, and allowed to dry before the test. The average and standard error on triplicates is calculated. The control (using only vehicle solvent) is run with ethanol. The same population of mosquitoes is exposed first to the warm surface treated with the vehicle solvent, then to the surface treated with the compound. The concentration of the solution comprising the test compound was adjusted to ensure the treatment dosage of the compound is according to the final concentration per surface units area in the table.

[2] = system: R. sanguineus tick larvae; details: for Repellence Median (Q1-Q3) [%] / Knockdown Median (Q1-Q3) [%]: pure compound; for Repellence Median (Q1-Q3) [%]: median of replicates; for Knockdown Median (Q1-Q3) [%]: motility reduction over 9 min; for Knockdown Minimum effective concentration / Repellence Minimum effective concentration: smallest concentration with median activity above 50% significance limit
Experimental: FIG. 1 Schematic representation of the tick repellent test. 30-60 tick larvae are deposited in the non-treated area of a circular arena (8.96 cm^2) whereby one quadrant of the surface (2.25 cm^2) is treated. After 1 minute, the distribution of ticks in the treated and untreated areas is measured for a duration of 2 minutes. The repellent/deterrent effect is expressed in %: 100% means that ticks completely avoided the treated surface. Toxicity is measured in the same setup over a duration of 8 minutes and the mortality is expressed in % motility reduction between the beginning and the end of the 8 minutes. Dosages are expressed as a quantity (mg or molarity) per surface unit (m^2), as the compound or extract is deposited at the bottom of the well. Pure compounds: dose given in micromoles/m^2; Extracts: dose given in micrograms/m^2. Tests were run in triplicates.
The assay is used to evaluate the repellent/deterrent potential of a test compound or extract. The test includes a preliminary assessment of knockdown efficacy as a secondary endpoint. Knockdown can be defined as a state of intoxication and paralysis that usually precedes death (Wickham et al. (1974) Pesticide Science 5(5): 657-664). The test relies on the questing behavior of ticks that explore their habitat to find a suitable host hunting site and their propensity to avoid areas treated with repellent or irritating substances. Tick knockdown is expressed as a reduction in total motility over a defined period of time, and not by collecting and counting the number of dead and live ticks at the end of the exposure period.
Plant extracts or synthetic pure alkaloids diluted in methanol (extracts) or ethanol (alkaloids) were deposited on the bottom of wells in a six-well plate. Only one quadrant ([…]) of the bottom surface of each well was treated. The solvent was left to evaporate. The final concentration of the plant extracts was, therefore, expressed in mg/m^2, or in micromoles per square meter (μmol/m^2) for the synthetic alkaloids. Final concentrations applied for plant extracts were 893 (R. sanguineus adults only), 446, 141, 44.6, 14.1, and 4.46 mg/m^2, and 300, 100, 30, 10, and 3 μmol/m^2 for pure alkaloids. Approximately 50 R. sanguineus tick larvae, and exactly 5 R. sanguineus adults, or 5 I. ricinus nymphs were added to the untreated area of each well. Positive (DEET, commercial tick repellent) and negative (methanol or ethanol) controls were evaluated in parallel. Each concentration tested was run in three or more test replicates. After a 1-min incubation on a heating plate, the frequency of tick movement in the treated quadrant and in each of the untreated quadrants was recorded by machine vision. Tick movement on the untreated surface was computed as the median of movement on the three untreated quadrants. To estimate deterrence recordings were performed over a period of 2 min for R. sanguineus larvae, and for 3 minutes for R. sanguineus adults and I. ricinus nymphs, after the 1-min pre-exposure period. To assess knockdown effect, recording was extended to 9 min (starting at the 1-min pre-exposure period and lasting an additional 8 minutes).
Deterrence activity was calculated as follows: Percent deterrence=1−(movements on treated area/movements on untreated area)×100.
A difference of 50% between total movements recorded in the treated area versus movements recorded in the untreated area was considered significant.
The tick knockdown effect was calculated similarly: Percent knockdown=1−(movements at the end of the imaging period/movements at the beginning of the imaging period)×100.
A difference of 50% between total movements recorded during the 1 min pre-exposure and total movements measured at 9 min of recording was considered significant.

[3] = Table 5, N = 3 subset of Table 4
[4] = Table 5, N = 3 subset of Table 4, dose 3
[5] = Table 5, N = 3 subset of Table 4, dose 30
[6] = Table 5, N = 3 subset of Table 4, dose 300
[7] = concentration 100 μmol/m^2, dihydrochloride

SMILES	Mean probing time [%, compared to control] ([1]; dose 380 μmol/m^2) [%]	Repellency, % reduction in landings vs vehicle control ([1]; dose 380 μmol/m^2) [%]	MEC (μmol/m^2) [2, 3] [μmol/m^2]	% repellency [2, 5] [%]	% mortality [2, 6] [%]	% repellency [2, 6] [%]	Repellence Median (Q1-Q3) [%] ([2]; concentration 3 μmol/m^2)	Knockdown Median (Q1-Q3) [%] ([2]; concentration 3 μmol/m^2)	Knockdown Median (Q1-Q3) [%] ([2]; concentration 10 μmol/m^2)	Knockdown Median (Q1-Q3) [%] ([2]; concentration 30 μmol/m^2)	Repellence Median (Q1-Q3) [%] ([2]; concentration 300 μmol/m^2)	Knockdown Minimum effective concentration [2] [μmol/m^2]	Repellence Median (Q1-Q3) [%] ([2]; concentration 10 μmol/m^2)	Repellence Median (Q1-Q3) [%] ([2]; concentration 30 μmol/m^2)	Repellence Median (Q1-Q3) [%] ([2]; concentration 100 μmol/m^2)	Knockdown Median (Q1-Q3) [%] ([2]; concentration 100 μmol/m^2)	Knockdown Median (Q1-Q3) [%] ([2]; concentration 300 μmol/m^2)	further results
C1=CC[C@H](c2cccnc2)NC1 (single isomer, unassigned) [R enantiomer base, R-(+) anatabine]	2.7	77.9	–	–	–	–	–	–	–	–	–	–	–	–	–	–	–	Mean probing time [%, compared to control] ([1]; dose 75 μmol/m^2): 29.0%; Repellency, % reduction in landings vs vehicle control ([1]; dose 75 μmol/m^2): 68.9%
C1=CC[C@@H](c2cccnc2)NC1 (single isomer, unassigned) [S enantiomer base, S-(−) anatabine]	1.6	90.0	–	–	–	–	–	–	–	–	–	–	–	–	–	–	–	Mean probing time [%, compared to control] ([1]; dose 75 μmol/m^2): 20.6%; Repellency, % reduction in landings vs vehicle control ([1]; dose 75 μmol/m^2): 86.5%
C1=CC[C@H](c2cccnc2)NC1 [(R)-anatabine dihydrochloride]	128.9	8.1	30	62	24	97	20.8	0	7.5	11.1	88.3%	100	–	–	–	–	–	% repellency [2, 4]: 0%; Repellence Median (Q1-Q3) [%] ([2]; concentration 10 μmol/m^2, dihydrochloride): 34.4%; Repellence Median (Q1-Q3) [%] ([2]; concentration 10 μmol/m^2, listed as (R)-anatabine, dihydrochloride): 34%; Repellence Median (Q1-Q3) [%] ([2]; concentration 30 μmol/m^2, dihydrochloride): 62.0%; Repellence Median (Q1-Q3) [%] ([2]; concentration 30 μmol/m^2, listed as (R)-anatabine, dihydrochloride): 62%; Repellence Median (Q1-Q3) [%] [2, 7]: 84.3%; Repellence Median (Q1-Q3) [%] ([2]; concentration 100 μmol/m^2, listed as (R)-anatabine, dihydrochloride): 84%; Knockdown Median (Q1-Q3) [%] [2, 7]: 54.5%; Knockdown Median (Q1-Q3) [%] ([2]; concentration 300 μmol/m^2, dihydrochloride): 52.7%; Repellence Minimum effective concentration ([2]; dihydrochloride): 30 μmol/m^2; Mean probing time [%, compared to control] ([1]; dose 760 μmol/m^2): 48.5%; Repellency, % reduction in landings vs vehicle control ([1]; dose 760 μmol/m^2): 42.9%
c1cncc([C@@H]2CCCCN2)c1 [(S)-anabasine]	–	–	>300	–	14	9	6.6	0	6.9	10.4	40.5%	>300	42.4%	46.9%	58	6.0%	9.5%	–
CN1CCC[C@H]1c1cccnc1 [(S)-nicotine]	–	–	–	–	–	–	–	3.4	1.3	26.4	–	300	–	–	–	37% and 37.1%	95% and 94.5%	–
c1cncc([C@@H]2CCCN2)c1 [(S)-nornicotine]	–	–	300	5	49	70	12.3	0.7	0.4	9.9	81% and 81.1%	>300	35.3%	27.9%	42.2	9%	18.7%	% mortality [2, 5]: 11%; Repellence Minimum effective concentration [2]: 300 μmol/m^2
CCN(CC)C(=O)c1cccc(C)c1 [DEET, N,N-Diethyl-m-toluamide]	–	–	–	26	–	100	31.1	0.7	10.0	2.4	100%	>300	57% and 57.3%	64% and 63.9%	75.7	5.2%	11.1%	% repellency [2, 4]: 27%; % mortality ([2]; in vivo): 11%; % repellency ([2]; positive control, dose 8.5 (mg/m^2)): 81.6%; Repellence Minimum effective concentration [2]: 10 μmol/m^2; MEC (Repellency) (mg/m^2) ([2]; tobacco extracts and DEET positive control): 8.5 mg/m^2
C1=CCC(c2cccnc2)NC1 (centres unmarked) [anatabine]	–	–	–	–	–	–	–	–	–	–	–	–	–	–	–	–	–	mosquito repellency, base form compared with HCl salt form ([1]; in vivo): significantly better mosquito repellent than in the HCl salt form; time spent by mosquitoes on treated surface, base form compared with HCl salt form ([1]; in vivo): much shorter time
